{"source": "patent US8012504B2", "about": "(priority 2000, dated 2011)", "key": {"clinical [1]": {"test": "clinical", "format": "in vivo, human", "from_the_text": "In another study drug interaction potential for combination drugs was examined."}, "[2]": {"conditions": "in vivo; cited from earlier work"}, "clinical [3]": {"test": "clinical", "conditions": "human, in vivo, 1200 mg"}}, "note": "Where a name gives a salt, the structure may show the parent alone.", "data": [{"smiles": "COc1ccccc1OCC(O)CO", "note": "(centres unmarked) [Guaifenesin, 3-(2-methoxyphenoxy)-1,2-propanediol]", "values": [{"measurement": "AUC(0-t)", "setting": "clinical [1]; human, in vivo, 1200 mg, Guaifenesin AUC0-t", "value": 7060, "unit": "ng·h/mL"}, {"measurement": "AUC(0-inf)", "setting": "clinical [1]; human, in vivo, 1200 mg, Guaifenesin AUCinf", "value": 7280, "unit": "ng·h/mL"}, {"measurement": "clearance", "setting": "clinical [1]; human, in vivo, 1200 mg, Guaifenesin Clearance", "value": 2750, "unit": "mL/min"}, {"measurement": "Cmax", "setting": "clinical [1]; human, in vivo, 1200 mg, Guaifenesin Cmax", "value": 1700, "unit": "ng/mL"}, {"measurement": "half-life", "setting": "clinical [1]; human, in vivo, 1200 mg, Guaifenesin Half-life", "value": 2.82, "unit": "h"}, {"measurement": "Tmax", "setting": "clinical [1]; human, in vivo, 1200 mg, Guaifenesin Tmax", "value": 0.75, "unit": "h"}, {"measurement": "typical plasma half-life", "setting": "[2]", "value": "approximately one"}, {"measurement": "AUC(0-t)", "setting": "clinical [3]; Guaifenesin AUC0-t", "value": 8350, "unit": "ng·h/mL"}, {"measurement": "AUC(0-inf)", "setting": "clinical [3]; Guaifenesin AUCinf", "value": 8830, "unit": "ng·h/mL"}, {"measurement": "clearance", "setting": "clinical [3]; Guaifenesin Clearance", "value": 2270, "unit": "mL/min"}, {"measurement": "Cmax", "setting": "clinical [3]; Guaifenesin Cmax", "value": 1920, "unit": "ng/mL"}, {"measurement": "half-life", "setting": "clinical [3]; Guaifenesin Half life", "value": 3.03, "unit": "h"}, {"measurement": "Tmax", "setting": "clinical [3]; Guaifenesin Tmax", "value": 0.75, "unit": "h"}]}, {"smiles": "CN[C@@H](C)[C@@H](O)c1ccccc1", "note": "[Pseudoephedrine, Pseudoephedrine hydrochloride]", "values": [{"measurement": "AUC(0-t)", "setting": "clinical [1]; human, in vivo, po, 120 mg, Pseudoephedrine AUC0-t, mean, Treatment B: 120 mg pseudoephedrine HCl alone (Sudafed 12 Hour), overnight fast", "value": 4020, "unit": "ng·h/mL"}, {"measurement": "AUC(0-t)", "setting": "clinical [1]; human, in vivo, po, 120 mg, Pseudoephedrine AUC0-t, mean, Treatment C: 120 mg pseudoephedrine HCl along with 1200 mg guaifenesin (Sudafed 12 Hour + Mucinex), overnight fast", "value": 3920, "unit": "ng·h/mL"}, {"measurement": "AUC(0-t)", "setting": "clinical [1]; human, in vivo, po, 120 mg, Pseudoephedrine AUC0-t, median, Treatment B: 120 mg pseudoephedrine HCl alone (Sudafed 12 Hour), overnight fast", "value": 3820, "unit": "ng·h/mL"}, {"measurement": "AUC(0-t)", "setting": "clinical [1]; human, in vivo, po, 120 mg, Pseudoephedrine AUC0-t, median, Treatment C: 120 mg pseudoephedrine HCl along with 1200 mg guaifenesin (Sudafed 12 Hour + Mucinex), overnight fast", "value": 3930, "unit": "ng·h/mL"}, {"measurement": "AUC(0-inf)", "setting": "clinical [1]; human, in vivo, po, 120 mg, Pseudoephedrine AUCinf, mean, Treatment B: 120 mg pseudoephedrine HCl alone (Sudafed 12 Hour), overnight fast", "value": 4500, "unit": "ng·h/mL"}, {"measurement": "AUC(0-inf)", "setting": "clinical [1]; human, in vivo, po, 120 mg, Pseudoephedrine AUCinf, mean, Treatment C: 120 mg pseudoephedrine HCl along with 1200 mg guaifenesin (Sudafed 12 Hour + Mucinex), overnight fast", "value": 4400, "unit": "ng·h/mL"}, {"measurement": "AUC(0-inf)", "setting": "clinical [1]; human, in vivo, po, 120 mg, Pseudoephedrine AUCinf, median, Treatment B: 120 mg pseudoephedrine HCl alone (Sudafed 12 Hour), overnight fast", "value": 4430, "unit": "ng·h/mL"}, {"measurement": "AUC(0-inf)", "setting": "clinical [1]; human, in vivo, po, 120 mg, Pseudoephedrine AUCinf, median, Treatment C: 120 mg pseudoephedrine HCl along with 1200 mg guaifenesin (Sudafed 12 Hour + Mucinex), overnight fast", "value": 4250, "unit": "ng·h/mL"}, {"measurement": "Cmax", "setting": "clinical [1]; human, in vivo, po, 120 mg, Pseudoephedrine Cmax, mean, Treatment B: 120 mg pseudoephedrine HCl alone (Sudafed 12 Hour), overnight fast", "value": 296, "unit": "ng/mL"}, {"measurement": "Cmax", "setting": "clinical [1]; human, in vivo, po, 120 mg, Pseudoephedrine Cmax, mean, Treatment C: 120 mg pseudoephedrine HCl along with 1200 mg guaifenesin (Sudafed 12 Hour + Mucinex), overnight fast", "value": 289, "unit": "ng/mL"}, {"measurement": "Cmax", "setting": "clinical [1]; human, in vivo, po, 120 mg, Pseudoephedrine Cmax, median, Treatment B: 120 mg pseudoephedrine HCl alone (Sudafed 12 Hour), overnight fast", "value": 298, "unit": "ng/mL"}, {"measurement": "Cmax", "setting": "clinical [1]; human, in vivo, po, 120 mg, Pseudoephedrine Cmax, median, Treatment C: 120 mg pseudoephedrine HCl along with 1200 mg guaifenesin (Sudafed 12 Hour + Mucinex), overnight fast", "value": 286, "unit": "ng/mL"}, {"measurement": "half-life", "setting": "clinical [1]; human, in vivo, po, 120 mg, Pseudoephedrine Half-life, mean, Treatment B: 120 mg pseudoephedrine HCl alone (Sudafed 12 Hour), overnight fast", "value": 6.05, "unit": "h"}, {"measurement": "half-life", "setting": "clinical [1]; human, in vivo, po, 120 mg, Pseudoephedrine Half-life, mean, Treatment C: 120 mg pseudoephedrine HCl along with 1200 mg guaifenesin (Sudafed 12 Hour + Mucinex), overnight fast", "value": 6.04, "unit": "h"}, {"measurement": "half-life", "setting": "clinical [1]; human, in vivo, po, 120 mg, Pseudoephedrine Half-life, median, Treatment B: 120 mg pseudoephedrine HCl alone (Sudafed 12 Hour), overnight fast", "value": 5.81, "unit": "h"}, {"measurement": "half-life", "setting": "clinical [1]; human, in vivo, po, 120 mg, Pseudoephedrine Half-life, median, Treatment C: 120 mg pseudoephedrine HCl along with 1200 mg guaifenesin (Sudafed 12 Hour + Mucinex), overnight fast", "value": 5.63, "unit": "h"}, {"measurement": "Tmax", "setting": "clinical [1]; human, in vivo, po, 120 mg, Pseudoephedrine Tmax, mean, Treatment B: 120 mg pseudoephedrine HCl alone (Sudafed 12 Hour), overnight fast", "value": 6.17, "unit": "h"}, {"measurement": "Tmax", "setting": "clinical [1]; human, in vivo, po, 120 mg, Pseudoephedrine Tmax, mean, Treatment C: 120 mg pseudoephedrine HCl along with 1200 mg guaifenesin (Sudafed 12 Hour + Mucinex), overnight fast", "value": 5.75, "unit": "h"}, {"measurement": "Tmax", "setting": "clinical [1]; human, in vivo, po, 120 mg, Pseudoephedrine Tmax, median, Treatment B: 120 mg pseudoephedrine HCl alone (Sudafed 12 Hour), overnight fast", "value": 6, "unit": "h"}, {"measurement": "Tmax", "setting": "clinical [1]; human, in vivo, po, 120 mg, Pseudoephedrine Tmax, median, Treatment C: 120 mg pseudoephedrine HCl along with 1200 mg guaifenesin (Sudafed 12 Hour + Mucinex), overnight fast", "value": 6, "unit": "h"}, {"measurement": "Pseudoephedrine Clearance", "setting": "clinical [1]; mean, Treatment B: 120 mg pseudoephedrine HCl alone (Sudafed 12 Hour), overnight fast", "value": 23.66, "unit": "L/h"}, {"measurement": "Pseudoephedrine Clearance", "setting": "clinical [1]; mean, Treatment C: 120 mg pseudoephedrine HCl along with 1200 mg guaifenesin (Sudafed 12 Hour + Mucinex), overnight fast", "value": 24.30, "unit": "L/h"}, {"measurement": "Pseudoephedrine Clearance", "setting": "clinical [1]; median, Treatment B: 120 mg pseudoephedrine HCl alone (Sudafed 12 Hour), overnight fast", "value": 22.20, "unit": "L/h"}, {"measurement": "Pseudoephedrine Clearance", "setting": "clinical [1]; median, Treatment C: 120 mg pseudoephedrine HCl along with 1200 mg guaifenesin (Sudafed 12 Hour + Mucinex), overnight fast", "value": 23.16, "unit": "L/h"}, {"measurement": "mean elimination half-life", "setting": "[2]", "value": "4 to 6", "unit": "h"}]}]}
